The record followed here is patent US20060240098A1, “Formulations for hyperforin-enriched hypericum fractions” (Aphios Corporation, priority 2004, published 2006).

This assay has as its target serotonin reuptake (Rattus norvegicus, UniProt P31652). Description: in vitro serotonin reuptake inhibition assay (Paracelsian). The class given is biochemical.

Where a name gives a salt, the structure may show the parent alone.

Sequence of serotonin reuptake (P31652 whole entry): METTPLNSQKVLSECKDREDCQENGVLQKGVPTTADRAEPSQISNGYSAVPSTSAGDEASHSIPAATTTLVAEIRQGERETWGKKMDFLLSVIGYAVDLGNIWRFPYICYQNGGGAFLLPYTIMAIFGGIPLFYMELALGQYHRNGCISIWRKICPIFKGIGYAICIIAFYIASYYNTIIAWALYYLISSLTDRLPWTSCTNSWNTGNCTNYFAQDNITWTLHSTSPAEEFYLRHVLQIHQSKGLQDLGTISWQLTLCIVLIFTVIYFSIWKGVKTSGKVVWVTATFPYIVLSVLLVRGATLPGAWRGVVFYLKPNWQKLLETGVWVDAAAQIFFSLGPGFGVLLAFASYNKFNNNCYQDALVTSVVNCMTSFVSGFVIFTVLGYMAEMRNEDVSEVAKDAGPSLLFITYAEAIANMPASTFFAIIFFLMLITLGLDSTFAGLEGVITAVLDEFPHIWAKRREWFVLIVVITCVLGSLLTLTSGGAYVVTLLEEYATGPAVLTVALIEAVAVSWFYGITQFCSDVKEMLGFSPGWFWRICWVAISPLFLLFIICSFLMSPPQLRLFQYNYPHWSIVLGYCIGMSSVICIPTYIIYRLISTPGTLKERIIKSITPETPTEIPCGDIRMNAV
Description: The bioassay was performed in quadruplicate by Paracelsian, Inc., Ithaca, N.Y. and were all in compliance with our standard operating protocols, having a standard deviation less than ±5%.

On to `Cc1cc(O)c2c(=O)c3c(O)cc(O)c4c5c(O)cc(O)c6c(=O)c7c(O)cc(C)c8c1c2c(c34)c(c78)c65` [Hypericin (Sigma), hypericin], for which the “Serotonin Reuptake Inhibition (%)” value (sample weight 2 μg) turned out to be 0.0%.

Take `CN(C)CCCN1c2ccccc2CCc2ccccc21` [Imipramine (Sigma), imipramine hydrochloride]: the “Serotonin Reuptake Inhibition (%)” value (sample weight 65 ng) turned out to be 38.3%. As for hyperforin [Hyperforin (Aphios)], where the note is “sample weight 2 μg”, the “Serotonin Reuptake Inhibition (%)” value stood at 80.3%.
